Columns and labels:
HT-29 [1] = assay: Antiproliferative activity against human HT-29 cells at 10 uM after 48 hrs by MTT assay relative to control; format: functional
HT-29 [2] = assay: Antiproliferative activity against human HT-29 cells after 48 hrs by MTT assay; format: functional, cell-based; conditions: HT-29, 48 h

IC50 (HT-29 [2]) [µM] | SMILES | Activity (HT-29 [1]) [%]
– | C=CCCC(=O)O[C@@H]1CC[C@]2(O[C@H]([C@@H](CC)C(=O)[C@@H](C)[C@@H](O)[C@H](C)[C@@H]3O[C@@H]([C@@H](CC)C(=O)OCC=C)CC[C@@H]3C)[C@@H](C)C[C@H]2C)O[C@@]12CC[C@@](C)([C@H]1CC[C@](O)(CC)[C@H](C)O1)O2 | <10
7.64 | CC[C@H]1C(=O)[C@@H](C)[C@@H](O)[C@H](C)[C@@H]2O[C@H](CC[C@@H]2C)[C@@H](CC)C(=O)OC/C=C/CCC(=O)O[C@@H]2CC[C@]3(O[C@H]1[C@@H](C)C[C@H]3C)O[C@@]21CC[C@@](C)([C@H]2CC[C@](O)(CC)[C@H](C)O2)O1 | 67
– | C=CCOC(=O)[C@H](CC)[C@H]1CC[C@H](C)[C@H]([C@@H](C)[C@H](O)[C@H](C)C(=O)[C@H](CC)[C@H]2O[C@]3(CC[C@@H](OC(=O)C=C)[C@]4(CC[C@@](C)([C@H]5CC[C@](O)(CC)[C@H](C)O5)O4)O3)[C@H](C)C[C@@H]2C)O1 | <10
> 10 | CC[C@H]1C(=O)[C@@H](C)[C@@H](O)[C@H](C)[C@@H]2O[C@H](CC[C@@H]2C)[C@@H](CC)C(=O)OC/C=C/C(=O)O[C@@H]2CC[C@]3(O[C@H]1[C@@H](C)C[C@H]3C)O[C@@]21CC[C@@](C)([C@H]2CC[C@](O)(CC)[C@H](C)O2)O1 | 13.6
– | CC[C@@H](C(=O)[C@@H](C)[C@@H](O)[C@H](C)[C@@H]1O[C@@H]([C@@H](CC)C(=O)O)CC[C@@H]1C)[C@H]1O[C@]2(C=C[C@@H](O)[C@]3(CC[C@@](C)([C@H]4CC[C@](O)(CC)[C@H](C)O4)O3)O2)[C@H](C)C[C@@H]1C [SALINOMYCIN] | 76.1
